Experimental data taken from patent US20050282743A1, “Molecular interactions in cells” (Arbor Vita Corporation, priority 2001, published 2005).
Peptide text beside a SMILES is read from it. * marks the point of attachment. Biotin = O=C1N[C@H]2[C@H](CS[C@H]2CCCCC(=O)*)N1

Experiments:
Assay in all cases: Apparent affinity (Kd) by titration of PL peptide in the G assay
Format in all cases: binding
[1] = target: T1, PDZ-domain polypeptide (GST/PDZ fusion protein) (Homo sapiens, UniProt Q9UDY2); conditions: Peptide Optimal Conc (Kd by titration of the PL peptide), PDZ ZO-2, PDZ Domain 1
T1 construct: made in house; host or cells: E. coli (DH5alpha, BL21 or JM109)
Outline: (§1)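 A fixed concentration of GST/PDZ fusion protein, 5 ug/ml by default, was mixed in solution with increasing labeled PL peptide (e.g. 0.1 uM-1 mM). Reaction times ranged from 10 minutes to 2 days at 4-37° C. Complexes were separated from free peptide and detected via the label as in the G assay, apparent affinity coming from the saturating concentration.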

[2] = target: T2, PDZ-domain polypeptide (GST/PDZ fusion protein) (Homo sapiens, UniProt Q14160); conditions: PDZ KIAA0147, PDZ Domain 3; read-out: Peptide Optimal Conc (Kd by titration of the PL peptide)
T2 construct: made in house; host or cells: E. coli (DH5alpha, BL21 or JM109)
Outline: as §1

[3] = target: T3, PDZ-domain polypeptide (GST/PDZ fusion protein) (Homo sapiens, UniProt Q96RT1); conditions: PDZ Erbin, PDZ Domain 1; read-out: Peptide Optimal Conc (Kd by titration of the PL peptide)
T3 construct: made in house; host or cells: E. coli (DH5alpha, BL21 or JM109)
Outline: as §1

[4] = target: T4, PDZ-domain polypeptide (GST/PDZ fusion protein) (Homo sapiens, UniProt Q9P202); conditions: PDZ KIAA1526, PDZ Domain 1; read-out: Peptide Optimal Conc (Kd by titration of the PL peptide)
T4 construct: made in house; host or cells: E. coli (DH5alpha, BL21 or JM109)
Outline: as §1

[5] = target: T5, PDZ-domain polypeptide (GST/PDZ fusion protein) (Homo sapiens, UniProt O00560); conditions: PDZ hSyntenin, PDZ Domain 1; titration of the PL peptide; read-out: Peptide Optimal Conc (Kd, dissociation constant)
T5 construct: made in house; host or cells: E. coli (DH5alpha, BL21 or JM109)
Outline: as §1

[6] = target: T6, PDZ-domain polypeptide (GST/PDZ fusion protein) (Homo sapiens, UniProt Q13796); conditions: PDZ hAPXL, PDZ Domain 1; read-out: Peptide Optimal Conc (non-zero value: Kd by titration of the PL peptide)
T6 construct: made in house; host or cells: E. coli (DH5alpha, BL21 or JM109)
Outline: as §1

[7] = target: T7, PDZ-domain polypeptide (GST/PDZ fusion protein) (Homo sapiens, UniProt O14907); conditions: PDZ TIP1, PDZ Domain 1; titration of the PL peptide; read-out: Peptide Optimal Conc (Kd, dissociation constant)
T7 construct: made in house; host or cells: E. coli (DH5alpha, BL21 or JM109)
Outline: as §1

[8] = target: T8, PDZ-domain polypeptide (GST/PDZ fusion protein) (Homo sapiens, UniProt Q96HC4); conditions: PDZ LIM Protein, PDZ Domain 1; titration of the PL peptide; read-out: Peptide Optimal Conc (Kd, dissociation constant)
T8 construct: made in house; host or cells: E. coli (DH5alpha, BL21 or JM109)
Outline: as §1

[9] = target: T9, PDZ-domain polypeptide (GST/PDZ fusion protein) (Homo sapiens, UniProt O15018); conditions: Peptide Optimal Conc (Kd by titration of the PL peptide), PDZ AIPC, PDZ Domain 1
T9 construct: made in house; host or cells: E. coli (DH5alpha, BL21 or JM109)
Outline: as §1

[10] = target: T10, PDZ-domain polypeptide (GST/PDZ fusion protein) (Homo sapiens, UniProt Q9C0E4); conditions: Peptide Optimal Conc (Kd by titration of the PL peptide)
T10 construct: made in house; host or cells: E. coli (DH5alpha, BL21 or JM109)
Outline: as §1

[11] = target: T11, PDZ-domain polypeptide (GST/PDZ fusion protein) (Homo sapiens, UniProt Q9Y3R0); conditions: Peptide Optimal Conc (Kd by titration of the PL peptide), PDZ GRIP1, PDZ Domain 6
T11 construct: made in house; host or cells: E. coli (DH5alpha, BL21 or JM109)
Outline: as §1

[12] = target: T12, PDZ-domain polypeptide (GST/PDZ fusion protein) (Homo sapiens, UniProt P57105); conditions: PDZ Outer Membrane, PDZ Domain 1; Protein Optimal Conc 5
T12 construct: made in house; host or cells: E. coli (DH5alpha, BL21 or JM109)
Outline: as §1

[13] = target: T13, PDZ-domain polypeptide (GST/PDZ fusion protein) (Homo sapiens, UniProt Q969H4); conditions: PDZ Connector Enhancer, PDZ Domain 1; Protein Optimal Conc 5
T13 construct: made in house; host or cells: E. coli (DH5alpha, BL21 or JM109)
Outline: as §1

T10 sequence (Q9C0E4 whole entry, the tested form may be a part): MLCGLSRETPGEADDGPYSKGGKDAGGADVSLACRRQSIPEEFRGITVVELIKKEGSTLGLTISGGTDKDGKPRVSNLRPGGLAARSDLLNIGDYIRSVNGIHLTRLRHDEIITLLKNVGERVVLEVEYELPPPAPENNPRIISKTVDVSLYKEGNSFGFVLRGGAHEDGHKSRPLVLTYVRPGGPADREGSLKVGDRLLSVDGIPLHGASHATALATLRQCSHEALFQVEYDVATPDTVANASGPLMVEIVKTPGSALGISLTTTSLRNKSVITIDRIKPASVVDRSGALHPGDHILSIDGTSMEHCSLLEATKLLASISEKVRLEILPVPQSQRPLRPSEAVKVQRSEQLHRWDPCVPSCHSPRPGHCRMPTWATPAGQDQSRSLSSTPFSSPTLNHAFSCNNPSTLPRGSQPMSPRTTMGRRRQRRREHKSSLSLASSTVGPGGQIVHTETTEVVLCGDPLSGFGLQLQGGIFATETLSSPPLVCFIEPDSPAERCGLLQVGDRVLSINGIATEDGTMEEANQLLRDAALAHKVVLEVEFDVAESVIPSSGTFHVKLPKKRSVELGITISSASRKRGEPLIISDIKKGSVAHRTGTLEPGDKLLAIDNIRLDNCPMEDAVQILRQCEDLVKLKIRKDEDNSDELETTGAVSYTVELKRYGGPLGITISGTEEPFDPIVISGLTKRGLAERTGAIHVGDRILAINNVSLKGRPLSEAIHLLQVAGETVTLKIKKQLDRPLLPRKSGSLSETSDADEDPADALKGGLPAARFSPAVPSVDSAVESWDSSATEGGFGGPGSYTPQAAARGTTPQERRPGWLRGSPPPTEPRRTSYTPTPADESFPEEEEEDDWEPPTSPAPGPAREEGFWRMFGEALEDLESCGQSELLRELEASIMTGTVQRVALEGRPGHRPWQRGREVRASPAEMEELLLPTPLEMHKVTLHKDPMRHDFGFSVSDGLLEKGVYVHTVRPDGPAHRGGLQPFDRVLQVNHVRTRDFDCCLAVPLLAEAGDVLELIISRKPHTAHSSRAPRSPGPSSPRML
T2 sequence (Q14160 whole entry, the tested form may be a part): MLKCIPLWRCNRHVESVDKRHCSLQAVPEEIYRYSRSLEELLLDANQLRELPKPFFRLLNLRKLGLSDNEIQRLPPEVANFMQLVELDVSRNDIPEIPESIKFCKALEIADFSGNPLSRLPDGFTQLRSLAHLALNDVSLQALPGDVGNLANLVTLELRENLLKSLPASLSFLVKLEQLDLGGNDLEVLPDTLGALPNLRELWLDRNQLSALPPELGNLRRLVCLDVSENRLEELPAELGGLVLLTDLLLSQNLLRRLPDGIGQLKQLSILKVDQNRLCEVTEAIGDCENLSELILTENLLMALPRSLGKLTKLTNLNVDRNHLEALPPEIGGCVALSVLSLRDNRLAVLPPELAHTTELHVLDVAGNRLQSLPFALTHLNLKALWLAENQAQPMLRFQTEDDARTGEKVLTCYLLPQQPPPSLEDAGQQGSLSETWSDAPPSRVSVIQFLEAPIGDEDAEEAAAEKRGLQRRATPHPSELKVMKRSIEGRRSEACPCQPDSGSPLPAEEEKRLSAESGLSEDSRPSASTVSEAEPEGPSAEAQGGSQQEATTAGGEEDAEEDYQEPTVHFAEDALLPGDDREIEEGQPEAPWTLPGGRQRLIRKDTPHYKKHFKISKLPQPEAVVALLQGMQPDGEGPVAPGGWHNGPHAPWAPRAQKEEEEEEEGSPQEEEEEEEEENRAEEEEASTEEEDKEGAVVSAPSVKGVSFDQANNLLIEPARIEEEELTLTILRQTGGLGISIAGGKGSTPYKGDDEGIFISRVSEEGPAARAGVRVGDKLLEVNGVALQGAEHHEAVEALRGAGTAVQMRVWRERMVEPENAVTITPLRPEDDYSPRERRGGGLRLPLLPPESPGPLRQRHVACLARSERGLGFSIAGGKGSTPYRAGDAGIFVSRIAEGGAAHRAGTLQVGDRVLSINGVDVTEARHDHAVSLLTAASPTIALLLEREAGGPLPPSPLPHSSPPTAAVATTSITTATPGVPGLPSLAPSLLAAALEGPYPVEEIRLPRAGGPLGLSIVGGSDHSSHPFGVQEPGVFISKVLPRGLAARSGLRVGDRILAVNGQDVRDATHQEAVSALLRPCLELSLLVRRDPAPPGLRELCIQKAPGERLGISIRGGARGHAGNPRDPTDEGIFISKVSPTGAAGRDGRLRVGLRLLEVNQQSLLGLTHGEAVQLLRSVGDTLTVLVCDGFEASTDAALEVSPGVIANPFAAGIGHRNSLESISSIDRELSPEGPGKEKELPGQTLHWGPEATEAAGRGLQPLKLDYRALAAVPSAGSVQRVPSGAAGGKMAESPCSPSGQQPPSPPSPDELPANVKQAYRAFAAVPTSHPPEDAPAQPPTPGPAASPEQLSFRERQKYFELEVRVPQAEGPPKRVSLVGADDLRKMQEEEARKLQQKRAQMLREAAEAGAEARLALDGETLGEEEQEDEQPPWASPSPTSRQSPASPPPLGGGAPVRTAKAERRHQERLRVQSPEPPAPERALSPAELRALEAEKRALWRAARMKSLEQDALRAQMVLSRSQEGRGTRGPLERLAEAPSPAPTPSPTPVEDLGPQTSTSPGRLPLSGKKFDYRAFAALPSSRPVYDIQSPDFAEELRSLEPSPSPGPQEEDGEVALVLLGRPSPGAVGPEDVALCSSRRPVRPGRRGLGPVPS
T8 sequence (Q96HC4 whole entry, the tested form may be a part): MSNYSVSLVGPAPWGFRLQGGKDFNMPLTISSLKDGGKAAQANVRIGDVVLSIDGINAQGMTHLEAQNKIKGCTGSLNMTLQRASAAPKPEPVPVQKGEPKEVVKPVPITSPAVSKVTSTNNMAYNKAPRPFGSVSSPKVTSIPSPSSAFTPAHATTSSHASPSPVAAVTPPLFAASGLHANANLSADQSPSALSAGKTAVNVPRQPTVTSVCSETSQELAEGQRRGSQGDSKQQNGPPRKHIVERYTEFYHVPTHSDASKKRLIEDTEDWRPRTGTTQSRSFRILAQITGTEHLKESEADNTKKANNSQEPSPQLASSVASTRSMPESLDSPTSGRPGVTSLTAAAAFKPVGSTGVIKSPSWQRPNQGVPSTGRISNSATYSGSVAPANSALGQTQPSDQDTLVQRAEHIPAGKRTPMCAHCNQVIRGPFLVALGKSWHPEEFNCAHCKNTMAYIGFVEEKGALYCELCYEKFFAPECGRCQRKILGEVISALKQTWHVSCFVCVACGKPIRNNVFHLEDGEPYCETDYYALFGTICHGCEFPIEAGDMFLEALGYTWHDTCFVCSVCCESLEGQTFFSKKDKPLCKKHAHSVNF
T1 sequence (Q9UDY2 whole entry, the tested form may be a part): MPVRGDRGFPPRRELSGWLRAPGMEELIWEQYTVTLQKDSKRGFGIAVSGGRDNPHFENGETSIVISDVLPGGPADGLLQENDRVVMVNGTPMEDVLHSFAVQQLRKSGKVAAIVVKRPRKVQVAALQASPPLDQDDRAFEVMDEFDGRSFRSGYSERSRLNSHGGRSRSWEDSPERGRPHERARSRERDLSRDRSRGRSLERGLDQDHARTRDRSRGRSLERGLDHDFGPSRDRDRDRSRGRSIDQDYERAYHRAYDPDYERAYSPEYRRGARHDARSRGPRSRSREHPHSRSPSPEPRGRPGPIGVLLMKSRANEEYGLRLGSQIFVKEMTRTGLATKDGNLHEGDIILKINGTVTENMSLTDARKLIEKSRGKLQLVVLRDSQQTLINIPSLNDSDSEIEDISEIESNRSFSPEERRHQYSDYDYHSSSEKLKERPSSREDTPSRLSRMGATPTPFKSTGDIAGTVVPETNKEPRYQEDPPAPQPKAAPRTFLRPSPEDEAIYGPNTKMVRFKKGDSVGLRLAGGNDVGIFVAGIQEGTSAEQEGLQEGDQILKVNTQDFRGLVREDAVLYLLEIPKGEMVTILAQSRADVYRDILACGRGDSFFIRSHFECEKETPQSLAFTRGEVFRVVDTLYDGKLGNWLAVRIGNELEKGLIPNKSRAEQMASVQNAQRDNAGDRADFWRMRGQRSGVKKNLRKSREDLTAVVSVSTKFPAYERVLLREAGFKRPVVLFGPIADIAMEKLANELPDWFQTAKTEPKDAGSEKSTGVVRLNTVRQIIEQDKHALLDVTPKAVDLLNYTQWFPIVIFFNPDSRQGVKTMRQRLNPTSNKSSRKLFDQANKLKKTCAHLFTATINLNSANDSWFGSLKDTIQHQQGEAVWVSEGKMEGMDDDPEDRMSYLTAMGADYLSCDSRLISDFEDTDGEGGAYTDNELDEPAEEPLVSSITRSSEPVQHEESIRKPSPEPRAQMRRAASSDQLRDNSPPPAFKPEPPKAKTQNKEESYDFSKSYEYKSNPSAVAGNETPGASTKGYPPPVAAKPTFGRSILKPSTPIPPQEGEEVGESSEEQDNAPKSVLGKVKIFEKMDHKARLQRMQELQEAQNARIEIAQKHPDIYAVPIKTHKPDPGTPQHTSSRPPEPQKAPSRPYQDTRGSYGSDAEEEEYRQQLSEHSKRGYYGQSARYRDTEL
T5 sequence (O00560 whole entry, the tested form may be a part): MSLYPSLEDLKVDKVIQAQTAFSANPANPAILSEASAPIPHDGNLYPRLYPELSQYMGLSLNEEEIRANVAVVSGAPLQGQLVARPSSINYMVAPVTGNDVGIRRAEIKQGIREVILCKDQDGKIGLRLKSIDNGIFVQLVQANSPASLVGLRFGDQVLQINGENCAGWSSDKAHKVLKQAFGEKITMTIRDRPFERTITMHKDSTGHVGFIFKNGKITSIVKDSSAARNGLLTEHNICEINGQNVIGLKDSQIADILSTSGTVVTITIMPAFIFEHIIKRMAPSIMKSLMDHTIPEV
T12 sequence (P57105 whole entry, the tested form may be a part): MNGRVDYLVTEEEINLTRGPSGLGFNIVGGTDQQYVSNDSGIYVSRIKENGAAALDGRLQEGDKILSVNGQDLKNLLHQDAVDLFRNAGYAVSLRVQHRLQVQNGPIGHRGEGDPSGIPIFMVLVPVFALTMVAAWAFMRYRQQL
T7 sequence (O14907 whole entry, the tested form may be a part): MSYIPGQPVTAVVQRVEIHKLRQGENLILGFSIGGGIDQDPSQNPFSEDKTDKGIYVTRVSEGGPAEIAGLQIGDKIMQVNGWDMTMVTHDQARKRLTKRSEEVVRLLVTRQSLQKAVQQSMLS

CC[C@H](C)[C@H](NC(=O)[C@H](CC(=O)O)NC(=O)[C@H](CCC(=O)O)NC(=O)[C@H](CCCNC(=N)N)NC(=O)[C@@H](NC(=O)CCCC[C@@H]1SC[C@@H]2NC(=O)N[C@@H]21)[C@@H](C)O)C(=O)N[C@@H](Cc1ccc(O)cc1)C(=O)N[C@H](C(=O)N[C@@H](CC(N)=O)C(=O)N[C@@H](Cc1ccc(O)cc1)C(=O)N1CCC[C@H]1C(=O)N[C@H](C(=O)N[C@@H](Cc1ccccc1)C(=O)N[C@@H](CO)C(=O)N[C@@H](CCCNC(=N)N)C(=O)N[C@@H](CCCNC(=N)N)C(=O)N1CCC[C@H]1C(=O)N[C@@H](CCCCN)C(=O)N[C@H](C(=O)N[C@@H](CCCNC(=N)N)C(=O)N[C@H](C(=O)O)C(C)C)[C@@H](C)O)[C@@H](C)O)C(C)C [DNAM-1] (Biotin-TREDIYVNYPTFSRRPKTRV-OH; C-terminus assumed)
Kd [1]: 3 µM

CSCC[C@H](NC(=O)[C@H](C)NC(=O)[C@H](CCCNC(=N)N)NC(=O)CNC(=O)[C@@H](NC(=O)[C@H](Cc1c[nH]c2ccccc12)NC(=O)[C@H](CCCNC(=N)N)NC(=O)CNC(=O)CCCC[C@@H]1SC[C@@H]2NC(=O)N[C@@H]21)[C@@H](C)O)C(=O)N[C@@H](CO)C(=O)N[C@@H](C)C(=O)N[C@@H](Cc1c[nH]c2ccccc12)C(=O)N[C@@H](CCCCN)C(=O)N1CCC[C@H]1C(=O)N[C@H](C(=O)N[C@@H](CCCNC(=N)N)C(=O)N[C@@H](CCCNC(=N)N)C(=O)N[C@@H](CCC(=O)O)C(=O)N[C@H](C(=O)N[C@@H](CCC(=O)O)C(=O)N[C@H](C(=O)O)C(C)C)[C@@H](C)O)[C@@H](C)O [HPV E6 #35 (modified)] (Biotin-GRWTGRAMSAWKPTRRETEV-OH; C-terminus assumed)
Kd [2]: 350 nM
Kd [3]: 400 nM
Kd [4]: 1000 nM

CC[C@H](C)[C@H](NC(=O)[C@H](Cc1ccc(O)cc1)NC(=O)[C@@H](NC(=O)[C@@H]1CCCN1C(=O)[C@H](CCC(N)=O)NC(=O)[C@H](CCC(=O)O)NC(=O)[C@H](CCC(N)=O)NC(=O)[C@H](C)NC(=O)[C@@H](NC(=O)[C@H](CC(C)C)NC(=O)[C@H](CC(C)C)NC(=O)[C@H](CCCNC(=N)N)NC(=O)[C@H](Cc1ccc(O)cc1)NC(=O)[C@H](CCSC)NC(=O)[C@H](C)NC(=O)[C@H](C)NC(=O)[C@@H]1CCCN1C(=O)[C@H](CCSC)NC(=O)[C@@H](NC(=O)[C@H](CCCCN)NC(=O)CCCC[C@@H]1SC[C@@H]2NC(=O)N[C@@H]21)[C@@H](C)O)[C@@H](C)O)C(C)C)C(=O)O [MINT-1] (Biotin-KTMPAAMYRLLTAQEQPVYI-OH; C-terminus assumed)
Kd [5]: 800 nM

CC[C@H](C)[C@H](NC(=O)CNC(=O)[C@H](CO)NC(=O)[C@H](Cc1ccccc1)NC(=O)[C@@H](NC(=O)[C@H](CS)NC(=O)CNC(=O)CNC(=O)[C@H](C)NC(=O)[C@@H]1CCCN1C(=O)[C@@H](NC(=O)[C@@H]1CCCN1C(=O)CCCC[C@@H]1SC[C@@H]2NC(=O)N[C@@H]21)[C@@H](C)CC)[C@@H](C)O)C(=O)N[C@@H](Cc1ccccc1)C(=O)N1CCC[C@H]1C(=O)N[C@H](C(=O)N[C@@H](CC(C)C)C(=O)N[C@H](C(=O)N[C@@H](CO)C(=O)N1CCC[C@H]1C(=O)N[C@@H](CC(C)C)C(=O)O)[C@@H](C)O)[C@@H](C)O [KIA 1481] (Biotin-PIPAGGCTFSGIFPTLTSPL-OH; C-terminus assumed)
Kd [6]: 600 nM

CC(C)C[C@H](NC(=O)[C@H](CC(=O)O)NC(=O)[C@H](CO)NC(=O)[C@H](CCC(=O)O)NC(=O)CNC(=O)[C@H](Cc1ccc(O)cc1)NC(=O)[C@H](CC(C)C)NC(=O)[C@H](C)NC(=O)[C@H](CO)NC(=O)[C@H](CO)NC(=O)[C@H](Cc1ccccc1)NC(=O)[C@H](C)NC(=O)[C@H](C)NC(=O)[C@H](Cc1ccc(O)cc1)NC(=O)[C@H](CC(=O)O)NC(=O)[C@H](CC(C)C)NC(=O)[C@H](C)NC(=O)CNC(=O)[C@@H]1CCCN1C(=O)[C@@H](NC(=O)CCCC[C@@H]1SC[C@@H]2NC(=O)N[C@@H]21)C(C)C)C(=O)O [a-actinin 2] (Biotin-VPGALDYAAFSSALYGESDL-OH; C-terminus assumed)
Kd [7]: 1000 nM
Kd [8]: 2000 nM

CC[C@H](C)[C@H](NC(=O)[C@H](C)NC(=O)[C@H](CC(C)C)NC(=O)[C@H](Cc1c[nH]c2ccccc12)NC(=O)[C@H](Cc1c[nH]cn1)NC(=O)[C@H](CCC(N)=O)NC(=O)[C@H](CC(C)C)NC(=O)[C@H](CCC(N)=O)NC(=O)[C@H](Cc1ccccc1)NC(=O)[C@H](CCC(N)=O)NC(=O)[C@H](CCCNC(=N)N)NC(=O)[C@@H](NC(=O)[C@H](CC(=O)O)NC(=O)[C@H](CCCNC(=N)N)NC(=O)[C@H](CCC(N)=O)NC(=O)[C@H](C)NC(=O)[C@@H](NC(=O)[C@H](CC(C)C)NC(=O)[C@H](Cc1c[nH]cn1)NC(=O)[C@H](Cc1c[nH]cn1)NC(=O)CCCC[C@@H]1SC[C@@H]2NC(=O)N[C@@H]21)C(C)C)[C@@H](C)CC)C(=O)O [noradrenaline transporter] (Biotin-HHLVAQRDIRQFQLQHWLAI-OH; C-terminus assumed)
Kd [9]: 600 nM
Kd ([10]; PDZ KIAA1719, PDZ Domain 5): 1000 nM
Kd ([10]; PDZ KIAA1719, PDZ Domain 6): 800 nM
Kd [11]: 500 nM

CC[C@H](C)[C@H](NC(=O)[C@H](CCCCN)NC(=O)[C@@H](NC(=O)[C@H](CO)NC(=O)[C@@H]1CCCN1C(=O)[C@H](Cc1ccccc1)NC(=O)[C@@H](NC(=O)[C@@H](NC(=O)[C@H](CCCNC(=N)N)NC(=O)[C@H](CCC(=O)O)NC(=O)[C@H](CC(C)C)NC(=O)[C@H](CC(C)C)NC(=O)[C@H](CC(C)C)NC(=O)[C@@H](NC(=O)CNC(=O)[C@@H](NC(=O)CCCC[C@@H]1SC[C@@H]2NC(=O)N[C@@H]21)C(C)C)[C@@H](C)O)C(C)C)[C@@H](C)CC)C(C)C)C(=O)N[C@@H](C)C(=O)N[C@H](C(=O)N[C@@H](CC(C)C)C(=O)N[C@H](C(=O)O)C(C)C)[C@@H](C)O [Adenovirus E4 Type9]
Kd [12]: 100 nM
Kd [13]: 100 nM
